From patent publication US8633245B2, “PAI-1 inhibitor” (Institute of Medicinal Molecular Design, Inc., priority 2008, dated 2014) come the findings set out here.

The test has as its target T1, recombinant human PAI-1 (Homo sapiens, UniProt P05121).
T1 construct: purchased Molecular Innovations, Inc
The experiment in a line: Test Example 1: human PAI-1 inhibitory activity (tPA fluorogenic substrate, pH 7.5 Tris buffer). To be noted: Tris buffer. Format: biochemical. The protocol: 50 mM Tris, 150 mM NaCl, 10 μg/ml BSA, 0.01% Tween80 (SIGMA-ALDRICH Corporation)

T1 sequence (P05121 24-402): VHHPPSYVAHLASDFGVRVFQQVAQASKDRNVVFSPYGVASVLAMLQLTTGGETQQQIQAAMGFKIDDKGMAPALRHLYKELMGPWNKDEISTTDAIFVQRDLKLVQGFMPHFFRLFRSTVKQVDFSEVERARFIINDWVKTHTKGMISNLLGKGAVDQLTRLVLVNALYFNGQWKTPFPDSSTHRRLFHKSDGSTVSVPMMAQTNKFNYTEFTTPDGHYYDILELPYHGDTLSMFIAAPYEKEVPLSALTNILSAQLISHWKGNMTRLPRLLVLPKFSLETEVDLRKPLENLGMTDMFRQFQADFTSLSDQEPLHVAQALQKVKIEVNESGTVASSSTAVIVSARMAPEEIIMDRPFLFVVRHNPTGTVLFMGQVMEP

Turning to `O=C(O)C(=O)N(Cc1ccc(O)cc1)c1ccc(-c2ccc(OC(F)(F)F)cc2)cc1` [Compound 181], the “Inhibition Rate of PAI-1 Activity (%)” value (Compound Concentration 5 μM) came to 10%, the “Inhibition Rate of PAI-1 Activity (%)” value (Compound Concentration 10 μM) was 11% and the “Inhibition Rate of PAI-1 Activity (%)” value (Compound Concentration 25 μM) amounted to 31%.
Take `COc1ccc(-c2ccc(OC(F)(F)F)cc2)cc1N(Cc1ccc(C(C)(C)C)cc1)C(=O)C(=O)O` [Compound 182]: the “Inhibition Rate of PAI-1 Activity (%)” value is 56% (Compound Concentration 5 μM), 85% (Compound Concentration 10 μM) and 89% (Compound Concentration 25 μM).
For the compound `O=C(O)C(=O)N(Cc1ccc(OC(F)(F)F)cc1)c1ccc(-c2ccccc2)cc1` [Compound 183], the “Inhibition Rate of PAI-1 Activity (%)” value turned out to be 11% (Compound Concentration 10 μM) and 29% (Compound Concentration 25 μM).
Regarding `Cc1cc(N(Cc2ccc(C(C)(C)C)cc2)C(=O)C(=O)O)ccc1-c1ccc(OC(F)(F)F)cc1` [Compound 184], the “Inhibition Rate of PAI-1 Activity (%)” value by setting is: (Compound Concentration 5 μM) 59%; (Compound Concentration 10 μM) 86%; (Compound Concentration 25 μM) 85%.
`Cc1ccc(N(Cc2ccc(C(C)(C)C)cc2)C(=O)C(=O)O)cc1Oc1ccc(OC(F)(F)F)cc1` [Compound 187]: the “Inhibition Rate of PAI-1 Activity (%)” value was 75% (Compound Concentration 5 μM), 92% (Compound Concentration 10 μM) and 88% (Compound Concentration 25 μM).
On the same counts, the results for `CC(C)(C)c1ccc(CN(C(=O)C(=O)O)c2ccc(Cl)cc2Oc2ccc(OC(F)(F)F)cc2)cc1` [Compound 191] are 74%, 92% and 87%.
Regarding `CCCCCOc1ccc(-c2ccc(OC(F)(F)F)cc2)cc1N(Cc1ccccc1)C(=O)C(=O)O` [Compound 195], the “Inhibition Rate of PAI-1 Activity (%)” value (Compound Concentration 5 μM) is 77%, the “Inhibition Rate of PAI-1 Activity (%)” value (Compound Concentration 10 μM) came out at 94% and the “Inhibition Rate of PAI-1 Activity (%)” value (Compound Concentration 25 μM) is on record as 93%.
Turning to `CC(C)(C)c1ccc(CN(C(=O)C(=O)O)c2ccc(-c3ccc(OC(F)(F)F)cc3)c(CCC(=O)O)c2)cc1` [Compound 196], the “Inhibition Rate of PAI-1 Activity (%)” value stood at 18% (Compound Concentration 5 μM), 35% (Compound Concentration 10 μM) and 64% (Compound Concentration 25 μM).
For `CC(C)(C)c1ccc(CN(C(=O)C(=O)O)c2ccc(-c3cccc(OC(F)(F)F)c3)cc2)cc1` [Compound 200], in that order: 64%, 89% and 92%.
With `CC(C)(C)c1ccc(CN(C(=O)C(=O)O)c2ccc(-c3ccccc3OC(F)(F)F)cc2)cc1` [Compound 201], the “Inhibition Rate of PAI-1 Activity (%)” value (Compound Concentration 5 μM) was 64%, the “Inhibition Rate of PAI-1 Activity (%)” value (Compound Concentration 10 μM) is 89% and the “Inhibition Rate of PAI-1 Activity (%)” value (Compound Concentration 25 μM) was 82%.
On to `CC(C)(C)c1ccc(-c2ccc(N(Cc3ccccc3OC(F)(F)F)C(=O)C(=O)O)cc2)cc1` [Compound 202], for which the “Inhibition Rate of PAI-1 Activity (%)” value reads like this: (Compound Concentration 5 μM) 70%; (Compound Concentration 10 μM) 94%; (Compound Concentration 25 μM) 98%.
As to `CC(C)(C)c1ccc(-c2ccc(N(Cc3cccc(OC(F)(F)F)c3)C(=O)C(=O)O)cc2)cc1` [Compound 203], the “Inhibition Rate of PAI-1 Activity (%)” value reads like this: (Compound Concentration 5 μM) 69%; (Compound Concentration 10 μM) 91%; (Compound Concentration 25 μM) 97%.
In the case of `CC(C)(C)c1ccc(-c2ccc(N(Cc3ccc(Cl)cc3)C(=O)C(=O)O)cc2)cc1` [Compound 204], the “Inhibition Rate of PAI-1 Activity (%)” value runs as follows: (Compound Concentration 5 μM) 58%; (Compound Concentration 10 μM) 85%; (Compound Concentration 25 μM) greater than 99%.
On to `CC(C)(C)c1ccc(-c2ccc(N(Cc3ccc(C(F)(F)F)cc3)C(=O)C(=O)O)cc2)cc1` [Compound 205], for which the “Inhibition Rate of PAI-1 Activity (%)” value amounted to 50% (Compound Concentration 5 μM), 80% (Compound Concentration 10 μM) and 98% (Compound Concentration 25 μM).
In the case of `CCC(CC)Oc1ccc(N(Cc2ccc(C(C)(C)C)cc2)C(=O)C(=O)O)c(-c2ccc(OC(F)(F)F)cc2)c1` [Compound 207], the “Inhibition Rate of PAI-1 Activity (%)” value was found to be 79% (Compound Concentration 5 μM) and 90% (Compound Concentration 10 μM).
